Experiments:
Type in all cases: in vivo
[1] = system: winter wheat (Triticum aestivum); experiment: Test C pre-/postemergence: winter wheat
Procedure, shortened: (§1)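 Visual injury scored 0–100 (100 = complete control) against untreated controls after 13–15 greenhouse days. Surfactant-containing solvent formulations applied either to soil after sowing (loam/sand) or over 1- to 4-leaf plants, 2–18 cm tall.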

[2] = system: large crabgrass (Digitaria sanguinalis); experiment: Test C pre-/postemergence: large crabgrass
Procedure, shortened: as §1

kochia (Kochia scoparia) = experiment: Test C pre-/postemergence: kochia
Procedure, shortened: as §1

[3] = system: barnyardgrass (Echinochloa crus-galli); experiment: Test A pre-/postemergence: barnyardgrass
Procedure, shortened: (§2)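 Visual 0–100 injury ratings (0 no effect, 100 complete control) taken about ten days after treatment, relative to untreated controls. Preemergence treatment was a directed soil spray; postemergence plants were 2–10 cm tall at one- to two-leaf stage. Soil: loam/sand blend.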

[4] = system: nutsedge, yellow (yellow nutsedge, Cyperus esculentus); experiment: Test C pre-/postemergence: nutsedge, yellow
Procedure, shortened: as §1

[5] = system: ryegrass, Italian (Italian ryegrass, Lolium multiflorum); experiment: Test C pre-/postemergence: ryegrass, Italian
Procedure, shortened: as §1

[6] = system: morningglory (Ipomoea spp.); experiment: Test A pre-/postemergence: morningglory
Procedure, shortened: as §2

[7] = system: johnsongrass (Sorghum halepense); experiment: Test C pre-/postemergence: johnsongrass
Procedure, shortened: as §1

corn (Zea mays) = experiment: Test A pre-/postemergence: corn
Procedure, shortened: as §2

[8] = system: galium (catchweed bedstraw, Galium aparine); experiment: Test C pre-/postemergence: galium
Procedure, shortened: as §1

[9] = system: pigweed (Amaranthus retroflexus); experiment: Test C pre-/postemergence: pigweed
Procedure, shortened: as §1

[10] = Postemergence, 31 g ai/ha, scale 0 to 100 (0 no effect, 100 complete control)
[11] = Postemergence, 62 g ai/ha, scale 0 to 100 (0 no effect, 100 complete control)
[12] = Postemergence, 125 g ai/ha, scale 0 to 100, 0 no effect, 100 complete control
[13] = Postemergence, 250 g ai/ha, scale 0 to 100
[14] = Postemergence, 125 g ai/ha, 0 to 100 scale, 0 is no effect, 100 is complete control
[15] = Postemergence, 500 g ai/ha, visual rating on 0 to 100 scale (0 no effect, 100 complete control), approximately ten days
[16] = Preemergence, 125 g ai/ha, 0 to 100 scale (0 no effect, 100 complete control)
[17] = Preemergence, 500 g ai/ha, 0 to 100 scale, 0 is no effect, 100 is complete control
[18] = Preemergence, 31 g ai/ha, scale of 0 to 100, 0 is no effect, 100 is complete control
[19] = Preemergence, 62 g ai/ha, scale of 0 to 100, 0 is no effect, 100 is complete control
[20] = Preemergence, 125 g ai/ha, scale 0 to 100, 0 no effect, 100 complete control
[21] = Preemergence, 250 g ai/ha, scale 0 to 100, 0 no effect, 100 complete control
[22] = Postemergence, 1000 g ai/ha, visual rating on 0 to 100 scale (0 no effect, 100 complete control), approximately ten days
[23] = Preemergence, 1000 g ai/ha, 0 to 100 scale, 0 is no effect, 100 is complete control

SMILES: FC(F)(F)c1ccc(-n2nc(Cl)c(Cc3ccnc(C(F)(F)F)c3)n2)cc1 [Compound 28]
- Plant response rating, Wheat [1, 10]: 5
- Plant response rating, Wheat [1, 11]: 10
- Plant response rating, Wheat [1, 12]: 10
- Plant response rating, Wheat [1, 13]: 20
- Plant response rating, Crabgrass, Large [2, 10]: 10
- Plant response rating, Crabgrass, Large [2, 11]: 15
- Plant response rating, Crabgrass, Large [2, 12]: 20
- Plant response rating, Crabgrass, Large [2, 13]: 25
- Plant response rating, Kochia (kochia (Kochia scoparia); [10]): 40
- Plant response rating, Kochia (kochia (Kochia scoparia); [11]): 65
- Plant response rating, Kochia (kochia (Kochia scoparia); [12]): 75
- Plant response rating, Kochia (kochia (Kochia scoparia); [13]): 95
- Barnyardgrass plant response rating [3, 14]: 70
- Barnyardgrass plant response rating [3, 15]: 90
- Plant response rating, Barnyardgrass [3, 16]: 50
- Plant response rating, Barnyardgrass [3, 17]: 90
- Plant response rating, Nutsedge, Yellow [4, 10]: 5
- Plant response rating, Nutsedge, Yellow [4, 11]: 5
- Plant response rating, Nutsedge, Yellow [4, 12]: 15
- Plant response rating, Nutsedge, Yellow [4, 13]: 25
- Plant response rating, Ryegrass, Italian [5, 10]: 10
- Plant response rating, Ryegrass, Italian [5, 11]: 25
- Plant response rating, Ryegrass, Italian [5, 12]: 25
- Plant response rating, Ryegrass, Italian [5, 13]: 30
- Morningglory plant response rating [6, 14]: 100
- Morningglory plant response rating [6, 15]: 100
- Plant response rating, Morningglory [6, 16]: 20
- Plant response rating, Johnsongrass [7, 10]: 5
- Plant response rating, Johnsongrass [7, 11]: 5
- Plant response rating, Johnsongrass [7, 12]: 5
- Plant response rating, Johnsongrass [7, 13]: 10
- Corn plant response rating (corn (Zea mays); [14]): 30
- Corn plant response rating (corn (Zea mays); [15]): 50
- Plant response rating, Corn (corn (Zea mays); [16]): 20
- Plant response rating, Corn (corn (Zea mays); [17]): 20
- Plant response rating, Galium [8, 10]: 40
- Plant response rating, Galium [8, 11]: 55
- Plant response rating, Galium [8, 12]: 70
- Plant response rating, Galium [8, 13]: 80
- Plant response rating, Pigweed [9, 10]: 55
- Plant response rating, Pigweed [9, 11]: 55
- Plant response rating, Pigweed [9, 12]: 55
- Plant response rating, Pigweed [9, 13]: 98

SMILES: Cc1nn(-c2ccc(C(F)(F)F)cn2)nc1Cc1cccc(C(F)(F)F)c1 [Compound 106]
- Plant response rating, Wheat [1, 10]: 10
- Plant response rating, Wheat [1, 11]: 30
- Plant response rating, Wheat [1, 12]: 30
- Plant response rating, Wheat [1, 18]: 0
- Plant response rating, Wheat [1, 19]: 0
- Plant response rating, Wheat [1, 20]: 0
- Plant response rating, Wheat [1, 21]: 5
- Plant response rating, Crabgrass, Large [2, 10]: 40
- Plant response rating, Crabgrass, Large [2, 11]: 55
- Plant response rating, Crabgrass, Large [2, 12]: 65
- Plant response rating, Crabgrass, Large [2, 13]: 65
- Plant response rating, Crabgrass, Large [2, 18]: 100
- Plant response rating, Crabgrass, Large [2, 19]: 100
- Plant response rating, Crabgrass, Large [2, 20]: 100
- Plant response rating, Crabgrass, Large [2, 21]: 100
- Plant response rating, Kochia (kochia (Kochia scoparia); [10]): 85
- Plant response rating, Kochia (kochia (Kochia scoparia); [11]): 85
- Plant response rating, Kochia (kochia (Kochia scoparia); [12]): 85
- Plant response rating, Kochia (kochia (Kochia scoparia); [13]): 90
- Plant response rating, Kochia (kochia (Kochia scoparia); [18]): 0
- Plant response rating, Kochia (kochia (Kochia scoparia); [19]): 0
- Plant response rating, Kochia (kochia (Kochia scoparia); [20]): 45
- Plant response rating, Kochia (kochia (Kochia scoparia); [21]): 65
- Barnyardgrass plant response rating [3, 22]: 40
- Barnyardgrass plant response rating [3, 23]: 50
- Plant response rating, Nutsedge, Yellow [4, 10]: 0
- Plant response rating, Nutsedge, Yellow [4, 11]: 0
- Plant response rating, Nutsedge, Yellow [4, 12]: 0
- Plant response rating, Nutsedge, Yellow [4, 13]: 0
- Plant response rating, Nutsedge, Yellow [4, 18]: 0
- Plant response rating, Nutsedge, Yellow [4, 19]: 0
- Plant response rating, Nutsedge, Yellow [4, 20]: 0
- Plant response rating, Nutsedge, Yellow [4, 21]: 0
- Plant response rating, Ryegrass, Italian [5, 10]: 5
- Plant response rating, Ryegrass, Italian [5, 11]: 5
- Plant response rating, Ryegrass, Italian [5, 12]: 20
- Plant response rating, Ryegrass, Italian [5, 13]: 30
- Plant response rating, Ryegrass, Italian [5, 18]: 5
- Plant response rating, Ryegrass, Italian [5, 19]: 20
- Plant response rating, Ryegrass, Italian [5, 20]: 45
- Plant response rating, Ryegrass, Italian [5, 21]: 50
- Morningglory plant response rating [6, 22]: 100
- Morningglory plant response rating [6, 23]: 20
- Plant response rating, Johnsongrass [7, 10]: 0
- Plant response rating, Johnsongrass [7, 11]: 15
- Plant response rating, Johnsongrass [7, 12]: 40
- Plant response rating, Johnsongrass [7, 13]: 55
- Plant response rating, Johnsongrass [7, 18]: 0
- Plant response rating, Johnsongrass [7, 19]: 20
- Plant response rating, Johnsongrass [7, 20]: 75
- Plant response rating, Johnsongrass [7, 21]: 85
- Corn plant response rating (corn (Zea mays); [22]): 10
- Corn plant response rating (corn (Zea mays); [23]): 10
- Plant response rating, Galium [8, 10]: 65
- Plant response rating, Galium [8, 11]: 65
- Plant response rating, Galium [8, 12]: 80
- Plant response rating, Galium [8, 13]: 80
- Plant response rating, Galium [8, 18]: 5
- Plant response rating, Galium [8, 19]: 10
- Plant response rating, Galium [8, 20]: 60
- Plant response rating, Galium [8, 21]: 90
- Plant response rating, Pigweed [9, 10]: 95
- Plant response rating, Pigweed [9, 11]: 98
- Plant response rating, Pigweed [9, 12]: 98
- Plant response rating, Pigweed [9, 13]: 98
- Plant response rating, Pigweed [9, 18]: 85
- Plant response rating, Pigweed [9, 19]: 98
- Plant response rating, Pigweed [9, 20]: 100
- Plant response rating, Pigweed [9, 21]: 100
